Results published in paper PMC9032718, “Eltrombopag as an Allosteric Inhibitor of the METTL3-14 Complex Affecting the m^6A Methylation of RNA in Acute Myeloid Leukemia Cells” (Pharmaceuticals, 2022).

Experiments:
MLL4 complex = target: T1, MLL4 complex (Homo sapiens, UniProt Q9UMN6); experiment: Methyltransferase selectivity panel (MT HotSpot radioisotope assay), MLL4 complex; assay type: biochemical; conditions: 10 μM eltrombopag
T1 construct: purchased Reaction Biology (Malvern, PA, USA), contract assay
Description: (§1) The selectivity profile of eltrombopag was investigated by testing the level of inhibition in a methyltransferase panel. The inhibition of 7 […] methyltransferase was tested at Reaction Biology (Malvern, PA, USA) using a gold standard radioisotope-based MT assay (MT HotSpot^TM) with 10 μM of eltrombopag in duplicate.

PRDM9 = target: T2, PRDM9 (Homo sapiens, UniProt Q9NQV7); experiment: Methyltransferase selectivity panel (MT HotSpot radioisotope assay), PRDM9; assay type: biochemical; conditions: 10 μM eltrombopag
T2 construct: purchased Reaction Biology (Malvern, PA, USA), contract assay
T2 sequence (Q9NQV7 whole entry): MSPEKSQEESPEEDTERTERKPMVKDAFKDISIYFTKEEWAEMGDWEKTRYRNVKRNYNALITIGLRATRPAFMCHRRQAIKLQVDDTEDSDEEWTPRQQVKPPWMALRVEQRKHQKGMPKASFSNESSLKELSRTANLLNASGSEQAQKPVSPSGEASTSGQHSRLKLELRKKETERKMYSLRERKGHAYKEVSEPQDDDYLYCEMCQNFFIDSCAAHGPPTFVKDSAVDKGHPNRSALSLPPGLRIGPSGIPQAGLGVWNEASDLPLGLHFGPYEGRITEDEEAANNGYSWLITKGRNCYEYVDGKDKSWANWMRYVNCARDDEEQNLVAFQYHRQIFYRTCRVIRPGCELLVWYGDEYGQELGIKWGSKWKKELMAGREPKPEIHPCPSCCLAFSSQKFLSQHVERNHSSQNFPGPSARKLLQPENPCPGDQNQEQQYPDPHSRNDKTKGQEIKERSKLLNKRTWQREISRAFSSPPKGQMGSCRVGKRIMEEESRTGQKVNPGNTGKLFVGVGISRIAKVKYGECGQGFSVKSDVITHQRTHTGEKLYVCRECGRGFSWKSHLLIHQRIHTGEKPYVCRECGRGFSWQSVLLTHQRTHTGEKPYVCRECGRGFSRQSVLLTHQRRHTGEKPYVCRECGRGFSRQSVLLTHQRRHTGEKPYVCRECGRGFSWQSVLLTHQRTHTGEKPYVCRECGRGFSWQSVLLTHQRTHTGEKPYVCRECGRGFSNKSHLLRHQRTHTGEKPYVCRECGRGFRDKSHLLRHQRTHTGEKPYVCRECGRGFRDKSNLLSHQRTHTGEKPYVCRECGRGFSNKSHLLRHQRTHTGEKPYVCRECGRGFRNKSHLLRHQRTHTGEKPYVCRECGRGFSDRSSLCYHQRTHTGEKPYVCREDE
Description: as §1

PRMT1 = target: T3, PRMT1 (Homo sapiens, UniProt Q99873); experiment: Methyltransferase selectivity panel (MT HotSpot radioisotope assay), PRMT1; assay type: biochemical; conditions: 10 μM eltrombopag
T3 construct: purchased Reaction Biology (Malvern, PA, USA), contract assay
T3 sequence (Q99873 whole entry): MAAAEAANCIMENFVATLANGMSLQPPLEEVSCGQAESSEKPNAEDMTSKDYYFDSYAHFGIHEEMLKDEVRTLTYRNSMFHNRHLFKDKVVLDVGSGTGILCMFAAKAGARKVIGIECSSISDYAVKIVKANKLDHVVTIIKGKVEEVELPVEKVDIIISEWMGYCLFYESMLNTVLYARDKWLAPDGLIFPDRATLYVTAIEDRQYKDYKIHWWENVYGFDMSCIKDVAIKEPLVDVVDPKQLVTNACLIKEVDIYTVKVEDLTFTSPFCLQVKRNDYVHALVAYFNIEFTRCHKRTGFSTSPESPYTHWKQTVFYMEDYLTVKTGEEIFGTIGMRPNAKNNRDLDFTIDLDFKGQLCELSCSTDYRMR
From the text: The selectivity profile of eltrombopag was investigated by testing the level of inhibition in a methyltransferase panel.

SETD2 = target: T4, SETD2 (Homo sapiens, UniProt Q9BYW2); experiment: Methyltransferase selectivity panel (MT HotSpot radioisotope assay), SETD2; assay type: biochemical; conditions: 10 μM eltrombopag
T4 construct: purchased Reaction Biology (Malvern, PA, USA), contract assay
T4 sequence (Q9BYW2 whole entry): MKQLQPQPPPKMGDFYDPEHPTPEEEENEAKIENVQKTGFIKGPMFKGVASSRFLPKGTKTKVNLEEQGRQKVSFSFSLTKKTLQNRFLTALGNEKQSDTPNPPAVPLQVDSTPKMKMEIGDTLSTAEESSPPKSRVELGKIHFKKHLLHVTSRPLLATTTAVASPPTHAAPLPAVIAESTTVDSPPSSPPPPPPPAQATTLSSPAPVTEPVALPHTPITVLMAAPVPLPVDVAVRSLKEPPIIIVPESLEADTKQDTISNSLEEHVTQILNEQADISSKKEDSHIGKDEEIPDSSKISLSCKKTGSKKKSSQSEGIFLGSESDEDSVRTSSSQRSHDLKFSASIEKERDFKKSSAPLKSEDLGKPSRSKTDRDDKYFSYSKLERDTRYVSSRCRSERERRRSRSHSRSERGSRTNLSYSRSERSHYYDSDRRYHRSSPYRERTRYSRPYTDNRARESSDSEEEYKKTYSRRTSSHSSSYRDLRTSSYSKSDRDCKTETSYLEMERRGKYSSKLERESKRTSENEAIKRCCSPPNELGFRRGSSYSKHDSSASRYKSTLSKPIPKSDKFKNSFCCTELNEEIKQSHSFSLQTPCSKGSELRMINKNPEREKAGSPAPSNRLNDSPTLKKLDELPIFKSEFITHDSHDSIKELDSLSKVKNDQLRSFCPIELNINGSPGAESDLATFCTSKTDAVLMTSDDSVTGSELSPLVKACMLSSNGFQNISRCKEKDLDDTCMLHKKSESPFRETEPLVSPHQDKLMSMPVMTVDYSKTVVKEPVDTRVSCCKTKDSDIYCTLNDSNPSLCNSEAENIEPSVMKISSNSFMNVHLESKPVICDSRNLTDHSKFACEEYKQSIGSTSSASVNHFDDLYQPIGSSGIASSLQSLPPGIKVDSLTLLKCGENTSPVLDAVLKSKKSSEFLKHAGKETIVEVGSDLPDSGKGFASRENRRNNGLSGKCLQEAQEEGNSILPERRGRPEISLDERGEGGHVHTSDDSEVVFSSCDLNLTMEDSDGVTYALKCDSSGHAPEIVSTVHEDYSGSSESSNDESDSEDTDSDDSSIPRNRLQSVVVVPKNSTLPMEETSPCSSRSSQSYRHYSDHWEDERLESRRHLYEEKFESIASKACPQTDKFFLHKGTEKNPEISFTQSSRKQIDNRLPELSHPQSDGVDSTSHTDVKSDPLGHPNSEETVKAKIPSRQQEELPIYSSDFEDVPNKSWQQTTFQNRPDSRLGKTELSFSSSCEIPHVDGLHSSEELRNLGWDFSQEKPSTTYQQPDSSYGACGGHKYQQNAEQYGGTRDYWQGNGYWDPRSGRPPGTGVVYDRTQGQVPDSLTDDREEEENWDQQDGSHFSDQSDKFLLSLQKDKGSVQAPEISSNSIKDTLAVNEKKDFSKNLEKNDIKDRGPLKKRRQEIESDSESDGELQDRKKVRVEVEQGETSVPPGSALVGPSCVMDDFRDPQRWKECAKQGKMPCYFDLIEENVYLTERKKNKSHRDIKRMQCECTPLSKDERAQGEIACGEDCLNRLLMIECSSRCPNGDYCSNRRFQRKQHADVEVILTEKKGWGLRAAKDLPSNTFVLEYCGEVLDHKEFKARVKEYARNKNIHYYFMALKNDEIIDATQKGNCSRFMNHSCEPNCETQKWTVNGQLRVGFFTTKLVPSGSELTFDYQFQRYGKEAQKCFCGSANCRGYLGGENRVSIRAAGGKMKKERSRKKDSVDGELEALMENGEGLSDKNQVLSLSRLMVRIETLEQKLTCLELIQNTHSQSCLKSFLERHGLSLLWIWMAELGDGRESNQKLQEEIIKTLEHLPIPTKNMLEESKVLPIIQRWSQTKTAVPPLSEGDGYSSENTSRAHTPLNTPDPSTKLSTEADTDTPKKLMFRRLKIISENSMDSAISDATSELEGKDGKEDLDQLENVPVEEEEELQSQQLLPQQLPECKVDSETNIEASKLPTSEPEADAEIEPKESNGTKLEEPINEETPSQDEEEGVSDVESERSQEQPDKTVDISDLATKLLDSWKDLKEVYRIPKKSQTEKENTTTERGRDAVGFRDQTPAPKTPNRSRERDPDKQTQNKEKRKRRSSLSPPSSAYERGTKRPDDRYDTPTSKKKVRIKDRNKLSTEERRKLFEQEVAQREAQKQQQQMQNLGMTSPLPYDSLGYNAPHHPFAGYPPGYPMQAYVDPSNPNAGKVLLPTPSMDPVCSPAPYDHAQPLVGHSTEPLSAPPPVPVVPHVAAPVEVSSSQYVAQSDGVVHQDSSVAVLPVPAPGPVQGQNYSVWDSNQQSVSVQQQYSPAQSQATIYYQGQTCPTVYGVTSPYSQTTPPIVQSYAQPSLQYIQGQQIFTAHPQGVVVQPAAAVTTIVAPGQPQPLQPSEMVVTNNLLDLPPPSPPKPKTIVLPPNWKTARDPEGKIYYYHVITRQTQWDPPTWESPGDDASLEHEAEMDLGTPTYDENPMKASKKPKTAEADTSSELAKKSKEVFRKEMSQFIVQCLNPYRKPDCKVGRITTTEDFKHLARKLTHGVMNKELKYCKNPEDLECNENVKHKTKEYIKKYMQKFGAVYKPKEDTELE
Description: as §1

SMYD3 = target: T5, SMYD3 (Homo sapiens, UniProt Q9H7B4); experiment: Methyltransferase selectivity panel (MT HotSpot radioisotope assay), SMYD3; assay type: biochemical; conditions: 10 μM eltrombopag, SMYD3
T5 construct: purchased Reaction Biology (Malvern, PA, USA), contract assay
T5 sequence (Q9H7B4 1-428): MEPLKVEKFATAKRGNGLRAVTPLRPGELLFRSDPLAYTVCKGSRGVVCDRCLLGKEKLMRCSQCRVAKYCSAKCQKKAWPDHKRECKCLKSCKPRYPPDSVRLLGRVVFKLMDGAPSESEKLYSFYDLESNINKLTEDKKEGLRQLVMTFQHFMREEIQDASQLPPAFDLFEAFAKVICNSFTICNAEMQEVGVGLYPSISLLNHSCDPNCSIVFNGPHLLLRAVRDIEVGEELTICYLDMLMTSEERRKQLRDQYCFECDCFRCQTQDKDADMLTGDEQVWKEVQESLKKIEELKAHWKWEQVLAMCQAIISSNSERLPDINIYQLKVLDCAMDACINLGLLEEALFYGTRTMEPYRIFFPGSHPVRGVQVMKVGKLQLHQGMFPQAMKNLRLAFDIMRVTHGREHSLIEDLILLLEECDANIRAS
Description: as §1

METTL3 = target: T6, METTL3 (Homo sapiens, UniProt Q86U44); experiment: Bioluminescence enzyme assay, single form of METTL3; assay type: biochemical; conditions: 1 μM METTL3, 1 μM SAM, 500 nM RNA, 5 h; read-out: IC50, single subunit enzyme form of METTL3
T6 construct: 10x His (thrombin-cleavable); made in house; host or cells: insect cells, baculovirus (pVL1393)
T6 sequence (Q86U44 whole entry): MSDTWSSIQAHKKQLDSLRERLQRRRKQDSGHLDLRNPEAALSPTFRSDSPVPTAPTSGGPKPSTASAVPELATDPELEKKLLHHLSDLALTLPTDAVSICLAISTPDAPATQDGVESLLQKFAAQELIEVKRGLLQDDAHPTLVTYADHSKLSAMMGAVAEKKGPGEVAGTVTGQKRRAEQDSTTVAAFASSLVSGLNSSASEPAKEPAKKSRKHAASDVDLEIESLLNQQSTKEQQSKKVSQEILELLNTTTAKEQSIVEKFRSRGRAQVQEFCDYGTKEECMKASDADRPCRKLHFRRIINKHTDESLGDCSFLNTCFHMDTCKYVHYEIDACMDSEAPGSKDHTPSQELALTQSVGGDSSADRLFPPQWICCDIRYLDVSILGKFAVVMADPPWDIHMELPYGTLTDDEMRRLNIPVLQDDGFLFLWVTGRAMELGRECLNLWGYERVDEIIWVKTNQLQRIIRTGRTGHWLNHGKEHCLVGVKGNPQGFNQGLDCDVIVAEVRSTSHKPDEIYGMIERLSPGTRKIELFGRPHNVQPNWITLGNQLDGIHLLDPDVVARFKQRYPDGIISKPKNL
Description: (§2) An enzymatic bioluminescence assay was established to identify the METTL3-14 inhibitor through screening. […] METTL3-14 activity was assessed by measuring the luminescence using a Victor multilabel reader (PerkinElmer, Waltham, MA, USA). The IC50 values were calculated by a nonlinear regression analysis using OriginPro 9.1 software (OriginLab).
(§3) To confirm the mechanism of action of eltrombopag in the METTL3-14 complex, 30 nM METTL3-14 and serially diluted eltrombopag were reacted with various concentrations of SAM or RNA substrate and saturating concentrations of the other substrate (3 μM SAM or 2 μM RNA substrate) for 20 min. To evaluate the inhibitory activity in a single form of METTL3 and METTL14, 1 μM of METTL3 and 300 nM of METTL14 were incubated with 1 μM of SAM, 500 nM of RNA substrates, and serially diluted eltrombopag for 5 h. To measure the inhibitory activity in the truncated form of the METTL3-14 complex, 1 μM of the truncated METTL3-14 complex was reacted with 1 μM of SAM, 500 nM of RNA substrates, and serially diluted eltrombopag for 5 h.

METTL14 = target: T7, METTL14 (Homo sapiens, UniProt Q9HCE5); experiment: Bioluminescence enzyme assay, single form of METTL14; assay type: biochemical; conditions: 36 μM eltrombopag; 300 nM METTL14, 5 h; read-out: % inhibition, single subunit enzyme form of METTL14
T7 construct: 10x His (thrombin-cleavable); made in house; host or cells: insect cells, baculovirus (pVL1393)
T7 sequence (Q9HCE5 1-456): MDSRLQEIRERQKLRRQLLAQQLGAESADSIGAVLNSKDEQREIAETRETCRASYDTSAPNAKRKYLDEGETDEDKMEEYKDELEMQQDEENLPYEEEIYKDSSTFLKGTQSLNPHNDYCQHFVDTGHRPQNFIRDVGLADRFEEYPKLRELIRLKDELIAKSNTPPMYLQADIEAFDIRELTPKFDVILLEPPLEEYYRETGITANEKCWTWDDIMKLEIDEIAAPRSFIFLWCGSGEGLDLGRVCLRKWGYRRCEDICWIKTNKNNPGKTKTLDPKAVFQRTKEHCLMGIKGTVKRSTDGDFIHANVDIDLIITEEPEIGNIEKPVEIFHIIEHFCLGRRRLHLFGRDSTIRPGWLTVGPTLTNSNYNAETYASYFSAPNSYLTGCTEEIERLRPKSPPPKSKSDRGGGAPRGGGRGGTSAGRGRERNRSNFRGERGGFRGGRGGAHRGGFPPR
Description: as §2, §3

MOLM-14 cells = experiment: Anti-proliferative assay (EZ-cytox), MOLM-14; assay type: cell-based; conditions: Homo sapiens, MOLM-14, 72 h
Description: (§4) The MOLM-13, MOLM-14, HL60, MV4-11, and THP-1 cells were seeded in white 96-well clear bottomed plates with 100 μL of medium (5000 cells/well). The plated cells were treated with serially diluted compounds and incubated for 72 h at 37 °C. After incubation, 10 μL of EZ-cytox kit reagent from the EZ-cytox cell viability assay kit (DaeiLab, Seoul, Korea) was added to each well and then incubated for 3 h at 37 °C. The absorbance of metabolically active cells was measured at a wavelength of 450 nm using a Victor multilabel reader (PerkinElmer). The GI50 values were calculated by nonlinear regression analysis using OriginPro 9.1 software (OriginLab).

HL60 cells = experiment: Anti-proliferative assay (EZ-cytox), HL60; assay type: cell-based; conditions: Homo sapiens, HL-60, 72 h
Description: as §4

MV4-11 cells = experiment: Anti-proliferative assay (EZ-cytox), MV4-11; assay type: cell-based; conditions: Homo sapiens, MV4-11, 72 h
Description: as §4

[1] = tested on: AML cell line transplanted mouse; design: method as in PMID 22627766; conditions: mouse model transplanted with an AML cell line; cited from earlier work
[2] = design: method as in PMID 30305280, PMID 30002802; conditions: cited from earlier work

CC1=NN(c2ccc(C)c(C)c2)C(=O)/C1=N\Nc1cccc(-c2cccc(C(=O)O)c2)c1O [Eltrombopag]
remaining activity at 10 µM (MLL4 complex): 70.9 ± 2.4%
remaining activity at 10 µM (PRDM9): 130 ± 4%
remaining activity at 10 µM (PRMT1): 96.1 ± 3.9%
remaining activity at 10 µM (SETD2): 97.3 ± 4.1%
remaining activity at 10 µM (SMYD3): 98.7 ± 5.7%
IC50 (METTL3): 7.04 µM
inhibition at 36 µM (METTL14): 59.3%
GI50 (MOLM-14 cells): 10.4 ± 0.7 µM
GI50 (HL60 cells): 12.9 ± 0.9 µM
GI50 (MV4-11 cells): 14.3 ± 0.1 µM
in-vivo anti-leukemic effect (survival) [1]: prolonging the survival
safety in clinical studies, combination with azacitidine ([2]; combination with azacitidine compared with azacitidine alone): increased progression to acute myeloid leukemia
safety in clinical studies, monotherapy ([2]; monotherapy): didn’t show any safety concerns
